Source: patent US12239643B2, “Therapeutic agent for inflammatory diseases, autoimmune diseases, fibrotic diseases, and cancer diseases” (MEIJI SEIKA PHARMA CO., LTD., priority 2018, dated 2025)

Assays:
[1] = tested on: bleomycin-induced pulmonary fibrosis, C57BL/6J mice; assay: Mouse bleomycin model; format: in vivo; details: oral once a day for 14 days, day 21 after BLM administration, compared with nintedanib
Description: Evaluation was carried out using female C57BL/6J mice (7 weeks of age). Bleomycin (BLM) at a concentration of 2 mg/kg was administered oropharyngeally under anesthesia to induce pulmonary fibrosis. Six days after BLM administration, the group was divided into experimental groups so as to achieve a uniform weight loss rate from the BLM administration day. The test compound dissolved or suspended in 0.5% w/v methylcellulose (0.5% MC) was orally administered (10 μL/g) at a concentration of 10 to 100 mg/kg once a day for 14 days from day 7 after the administration of BLM. On day 21 after BLM administration, blood was collected under anesthesia, and the lungs were fixed with a 10% neutral buffered formalin solution and treated for histological examination. To evaluate the degree of fibrosis, the concentration of serum surfactant protein D (SP-D) was measured by the ELISA method.

[2] = tested on: substance P-induced pruritus behavior, ICR mice; assay: Mouse pruritus model; format: in vivo; details: oral, substance P intradermally 2 hours after administration
Description: Evaluation was carried out using male ICR mice (5 to 7 weeks of age). A micro magnet was embedded under the skin of both hind limbs of the mice in advance, and the hair on the back of the mouse neck was shaved. On the day of the test, the test compound was dissolved or suspended in 0.5% w/v methylcellulose (0.5% MC) and orally administered. Two hours after administration of the test compound, 50 μL of 300 nM substance P dissolved in saline was intradermally administered to the back of the mouse neck. The blank was a non-pruritus-induced group orally administered with 0.5% MC instead of the test compound and intradermally administered with saline instead of substance P, and the pruritus induction control was a group orally administered with 0.5% MC instead of the test compound. The pruritus measurement system for small animals, MicroAct II, automatically measured pruritus behavior for 30 minutes immediately after intradermal administration.

Structure (SMILES): CC(C)(O)C(F)(F)Oc1ccc(-c2nccs2)c2oc(N3CC4CC(C3)N4)nc12 [Example 248, 1-((2-(3,6-Diazabicyclo[3.1.1]heptan-3-yl)-7-(thiazol-2-yl)benzo[d]oxazol-4-yl)oxy)-1,1-difluoro-2-methylpropan-2-ol]
- pulmonary fibrosis score [1]: equal to or lower than those of nintedanib
- serum SP-D concentration [1]: equal to or lower than those of nintedanib
- scratching behavior (pruritus behavior for 30 minutes) [2]: suppressed mouse scratching behavior at a lower concentration than apremilast
